Like-named read-outs stand apart in the source and are kept apart here.
Assays:
[1] = molecular target: T1, Farnesoid X receptor (FXR) ligand binding domain (Homo sapiens, UniProt Q96RI1); test: Intrinsic tryptophan fluorescence quenching titration
T1 sequence (Q96RI1 203-486): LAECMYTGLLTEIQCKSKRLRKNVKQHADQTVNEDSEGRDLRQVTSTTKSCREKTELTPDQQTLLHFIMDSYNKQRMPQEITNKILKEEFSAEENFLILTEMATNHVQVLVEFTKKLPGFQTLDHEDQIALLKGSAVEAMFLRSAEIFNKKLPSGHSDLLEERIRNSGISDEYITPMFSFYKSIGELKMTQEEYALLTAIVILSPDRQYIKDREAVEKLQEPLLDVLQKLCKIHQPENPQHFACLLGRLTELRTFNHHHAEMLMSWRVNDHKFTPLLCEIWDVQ

[2] = molecular target: T1, Farnesoid X receptor (FXR) ligand binding domain; test: as above; remark: listed apart in the source

Kd [2] [nM] | Compound | Kd [1] [nM]
 | CC(C)=CCc1c(O)cc(O)c2c1O[C@H](c1ccc(O)cc1)CC2=O [8-PN, 8-prenylnaringenin] | 2200 ± 50
 | COc1cc(O)c(CC=C(C)C)c2c1C(=O)CC(c1ccc(O)cc1)O2 (stereo not drawn) [IX, isoxanthohumol] | 5920 ± 250
2680 ± 110 | COc1cc(O)c(CC=C(C)C)c(O)c1C(=O)/C=C/c1ccc(O)cc1 [XN, xanthohumol] | 
